Reference: patent US6906198B1, “Antipicornaviral compounds, their preparation and use” (Agouron Pharmaceuticals, Inc., priority 1998, dated 2005)
pEC50: −log10 of the molar value. Like-named read-outs stand apart in the source and are kept apart here.

What was measured:
[1] = Cytotoxicity in mock-infected H1-HeLa cells (antirhinoviral assay, XTT); assay type: cell-based; settings: human, 50% cytotoxic dose
Experimental: (§1) H1-HeLa cells were infected with HRV-14 at a multiplicity of infection (m.o.i.) of 0.13 (virus particles/cell) or mock-infected with medium only. Infected or mock-infected cells were resuspended at 8×10^5 cells per mL, and incubated with appropriate concentrations of the compounds to be tested. Two days later, XTT/PMS was added to test plates and the amount of formazan produced was quantified spectrophotometrically at 450/650 nm. The EC50 value was calculated as the concentration of compound that increased the percentage of formazan production in compound-treated, virus-infected cells to 50% of that produced by compound-free, mock-infected cells. The 50% cytotoxic dose (CC50) was calculated as the concentration of compound that decreased the percentage of formazan produced in compound-treated, mock-infected cells to 50% of that produced by compound-free, mock-infected cells. The therapeutic index (TI) was calculated by dividing the CC50 value by the EC50 value.
(§2) All strains of human rhinovirus (HRV) for use in this assay were purchased from American Type Culture Collection (ATCC), except for HRV serotype-14 (produced from the infectious cDNA clone constructed by Dr. Robert Rueckert, Institute for Molecular Virology, University of Wisconsin, Madison, Wis.). HRV stocks were propagated and viral assays were performed in H1-HeLa cells (ATCC). Cells were grown in minimal essential medium with 10% fetal bovine serum, available from Life Technologies (Gaithersburg, Md.).

[2] = test system: HRV-14; assay: Antirhinoviral H1-HeLa cell culture assay (XTT), HRV-14; assay type: cell-based, human rhinovirus
Experimental: Antirhinoviral H1-HeLa Cell Culture Assay
In this cell protection assay, the ability of compounds to protect cells against HRV infection was measured by the XTT dye reduction method, which is described in Weislow et al., J. Natl. Cancer Inst. 1989, vol. 81, 577-586.
as §1, §2
The compounds were tested against control compounds WIN 51711, WIN 52084, and WIN 54954 (obtained from Sterling-Winthrop Pharmaceuticals), Pirodavir (obtained from Janssen Pharmaceuticals), and Pleconaril (prepared according to the method described in Diana et al., J. Med. Chem 1995, vol. 38, 1355). Antiviral data obtained for the test compounds are shown in Tables 1 and 3, where all data are for HRV serotype-14 unless otherwise noted in parentheses.

[3] = HRV serotype-14, H1-HeLa cells (Table 1), read-out: Cell Protection EC50
[4] = HRV serotype-14, H1-HeLa cells (Table 3), read-out: EC50

Row | SMILES | CC50 at 2 days [1] [µM] | further results
1 | CCOC(=O)/C=C/[C@H](CN1CCNC1=O)NC(=O)[C@H](Cc1ccccc1)NC(=O)[C@H](CC(C)C)NC(=O)OCc1ccccc1 |  | melting point: 161 to 164 °C
2 | CCOC(=O)/C=C/[C@H](CCC(N)=O)NC(=O)[C@H](Cc1ccccc1)NC(=O)[C@H](CC(C)C)NC(=O)c1cc(C)on1 [(A-1), Ethyl-3-((5′-Methylisoxazole-3′-carbonyl)-L-Leu-L-Phe-L-Gln)-E-Propenoate] | > 100 | melting point: 223 to 225 °C
3 | CCOC(=O)/C=C/[C@H](CCC(N)=O)NC(=O)[C@H](Cc1ccccc1)NC(=O)[C@H](CC(C)C)NC(=O)c1ccno1 [(A-2), Ethyl-3-((Isoxazole-5′-carbonyl)-L-Leu-L-Phe-L-Gin)-E-Propenoate] | > 100 | 
4 | CCOC(=O)/C=C/[C@H](CCC(N)=O)NC(=O)[C@H](Cc1ccc(C)cc1)NC(=O)[C@@H](NC(=O)c1cc(C)on1)C(C)(C)C [(A-3), Ethyl-3-((5′-Methylisoxazole-3′-carbonyl)-L-α-(t-Butyl-Gly)-L-(4-Me-Phe)-L-Gln)-E-Propenoate] | > 10 | 
5 | CCOC(=O)/C=C/[C@H](CCC(N)=O)NC(=O)[C@H](Cc1ccc(F)cc1)NC(=O)[C@@H](NC(=O)c1cc(C)on1)C(C)(C)C [(A-4), Ethyl-3-((5′-Methylisoxazole-3′-carbonyl)-L-α-(t-Butyl-Gly)-L-(4-F-Phe)-L-Gln)-E-Propenoate] | > 100 | 
6 | CCOC(=O)/C=C/[C@H](CCC(N)=O)NC(=O)[C@H](Cc1ccc(F)cc1)NC(=O)[C@@H](NC(=O)c1cc(C)on1)C(C)C [(A-6), Ethyl-3-[(5′-Methylisoxazole-3′-carbonyl)-L-Val-L-(4-F-Phe)-L-Gln]-E-Propenoate] | > 100 | 
7 | CCOC(=O)/C=C/[C@H](CCC(N)=O)NC(=O)[C@H](Cc1ccc(F)cc1)N(C)C(=O)[C@H](Cc1c[nH]cn1)NC(=O)c1cc(C)on1 [(A-9), Ethyl-3-{(5′-Methylisoxazole-3′-carbonyl)-L-His-NCH3-L-(4-F-Phe)-L-Gln}-E-Propenoate] | > 100 | 
8 | CCOC(=O)/C=C/[C@H](CCC(N)=O)NC(=O)[C@H](Cc1ccccc1)N(C)C(=O)[C@H](CC(C)C)NC(=O)c1cc(C)on1 [(A-10), Ethyl-3-((5′-Methylisoxazole-3′-carbonyl)-L-Leu-NCH3-L-Phe-L-Gln}-E-Propenoate] | > 100 | pEC50 ([2]; Rhinovirus B, HRV14, HRV serotype-14, H1-HeLa cells (Table 1), read-out: Cell Protection EC50): 6.85; pEC50 ([2]; Rhinovirus B, HRV14, HRV serotype-14, H1-HeLa cells (Table 3), read-out: EC50): 6.85
9 | CCOC(=O)/C=C/[C@H](CCC(N)=O)NC(=O)[C@H](Cc1ccc(F)cc1)N(C)C(=O)[C@H](Cc1ccc2ccccc2c1)NC(=O)c1cc(C)on1 [(A-11), Ethyl-3-{(5′-Methylisoxazole-3′-carbonyl)-L-(2-Naphth)-NCH3-L-(4-F-Phe)-L-Gln}-E-Propenoate] | 50 | 
10 | CCOC(=O)/C=C/[C@H](CCC(N)=O)NC(=O)[C@H](Cc1ccc(F)cc1)N(C)C(=O)[C@H](CC(C)C)NC(=O)c1cc(C)on1 [(A-12), Ethyl-3-{(5′-Methylisoxazole-3′-carbonyl)-L-Leu-NCH3-L-(4-F-Phe)-L-Gln}-E-Propenoate] | > 100 | 
11 | CCOC(=O)/C=C/[C@H](CCC(N)=O)NC(=O)[C@H](Cc1ccc(F)cc1)N(C)C(=O)[C@H](Cc1cccc2ccccc12)NC(=O)c1cc(C)on1 [(A-13), Ethyl-3-{(5′-Methylisoxazole-3′-carbonyl)-L-(1-Naphth)-NCH3-L-(4-F-Phe)-L-Gln}-E-Propenoate] | > 10 | 
12 | CCOC(=O)/C=C/[C@H](CCC(N)=O)NC(=O)[C@H](Cc1ccccc1)NC(=O)[C@@H](NC(=O)c1cccs1)C(C)(C)C [(A-14)] |  | pEC50 [2, 3]: 6.32; pEC50 [2, 4]: 6.32
13 | CC(C)[C@H](NC(=O)C1SCCS1)C(=O)N[C@@H](Cc1ccc(F)cc1)C(=O)N[C@H](/C=C/C(=O)OCc1cccnc1)CCC(N)=O [(A-18)] |  | pEC50 [2, 3]: 5.82; pEC50 [2, 4]: 5.82
14 | CCOC(=O)/C=C/[C@H](CCC(N)=O)NC(=O)[C@H](Cc1ccccc1)NC(=O)[C@H](CC(C)C)NC(=O)[C@@H]1C=CCN1 [(A-19)] |  | pEC50 [2, 3]: 4.60; pEC50 [2, 4]: 4.60
15 | CCOC(=O)/C=C/[C@H](CCC(N)=O)NC(=O)[C@H](Cc1ccccc1)NC(=O)[C@H](CC(C)C)NC(=O)c1cc(C)oc1C [(A-20)] |  | pEC50 [2, 3]: 4.90; pEC50 [2, 4]: 4.90
16 | CCOC(=O)/C=C/[C@H](CCC(N)=O)NC(=O)[C@H](Cc1ccccc1)NC(=O)[C@H](CC(C)C)NC(=O)c1nc(C)c[nH]1 [(A-21)] |  | pEC50 [2, 3]: 5.60; pEC50 [2, 4]: 5.60
17 | CCOC(=O)/C=C/[C@H](C[C@@H]1CCNC1=O)NC(=O)[C@H](Cc1ccccc1)NC(=O)[C@H](CC(C)C)NC(=O)OCc1ccccc1 [(A-24), Ethyl-3-{Cbz-L-Leu-L-Phe-L-((S)-Pyrrol-Ala)}-E-Propenoate] | > 100 | 
18 | CCOC(=O)/C=C/[C@H](C[C@@H]1CCNC1=O)NC(=O)[C@H](Cc1ccccc1)NC(=O)[C@@H](NC(=O)OCc1ccccc1)C(C)C [(A-25), Ethyl-3-{Cbz-L-Val-L-Phe-L-((S)-Pyrrol-Ala)}-E-Propenoate] | > 100 | 
19 | CCOC(=O)/C=C/[C@H](C[C@@H]1CCCNC1=O)NC(=O)[C@H](Cc1ccccc1)NC(=O)[C@H](CC(C)C)NC(=O)OCc1ccccc1 [(A-26), Ethyl-3-{Cbz-L-Leu-L-Phe-L-((S)-Piper-Ala)}-E-Propenoate] | > 100 | 
20 | CCOC(=O)/C=C/[C@H](C[C@H]1CCNC1=O)NC(=O)[C@H](Cc1ccccc1)NC(=O)[C@H](CC(C)C)NC(=O)OCc1ccccc1 [(A-27), Ethyl-3-{Cbz-L-Leu-L-Phe-L-((R)-Pyrrol-Ala)}-E-Propenoate] | > 100 | 
21 | CCOC(=O)/C=C/[C@H](CCC(N)=O)NC(=O)[C@@H](CC(=O)[C@@H](NC(=O)c1cc(C)on1)C(C)C)Cc1ccc(F)cc1 [(B-1), Ethyl-3-{(5′-Methylisoxazole-3′-carbonyl)-L-ValΨ(COCH2)-L-(4-F-Phe)-L-Gln}-E-Propenoate] | > 100 | melting point: 220 °C (dec.)
22 | Cc1cc(C(=O)N[C@H](C(=O)C[C@@H](Cc2ccc(F)cc2)C(=O)N[C@H](/C=C2\CCOC2=O)C[C@@H]2CCNC2=O)C(C)C)no1 [(B-3), 2-{(5′-Methylisoxazole-3′-carbonyl)-L-ValΨ(COCH2)-L-(4-F-Phe)-L-((S)-Pyrrol-Ala)}-E-(α-Vinyl-γ-Butyrolactone)] | > 100 | 
23 | CCOC(=O)/C=C/[C@H](C[C@@H]1CCCNC1=O)NC(=O)[C@@H](CC(=O)[C@@H](NC(=O)c1cc(C)on1)C(C)C)Cc1ccc(F)cc1 [(B-4), Ethyl-3-{(5′-Methylisoxazole-3′-carbonyl)-L-ValΨ(COCH2)-L-(4-F-Phe)-L-((S)-Piper-Ala)}-E-Propenoate] | > 100 | 
24 | CCOC(=O)/C=C/[C@H](CCC(N)=O)NC(=O)[C@H](Cc1ccc(F)cc1)OC(=O)[C@@H](NC(=O)c1cc(C)on1)C(C)C [(C-1), Ethyl-3-{(5′-Methylisoxazole-3′-carbonyl)-L-Val-O-L-(4-F-Phe)-L-Gln}-E-Propenoate] | > 10 | 
25 | CCOC(=O)/C=C/[C@H](C[C@@H]1CCNC1=O)NC(=O)[C@H](Cc1ccc(F)cc1)OC(=O)[C@@H](NC(=O)c1cc(C)on1)C(C)C [(C-2), Ethyl-3-{(5′-Methylisoxazole-3′-carbonyl)-L-Val-O-L-(4-F-Phe)-L-((S)-Pyrrol-Ala)}-E-Propenoate] | > 10 | 
26 | CC(C)C[C@H](NC(=O)OCc1ccccc1)C(=O)N[C@@H](Cc1ccccc1)C(=O)N[C@H](/C=C/c1ccno1)CCC(N)=O [Comparison Compound #1, 5-(3′-(Cbz-L-Leu-L-Phe-L-Gln)-E-Propene)-Isoxazole, reference compound] | > 320 | 
